# How the values were obtained:
# CDK12/CycK = biological target: T1, CDK12/CycK (Homo sapiens, UniProt Q9NYV4); assay: CDK12/CycK high ATP kinase assay (TR-FRET, 2 mM ATP); assay type: biochemical; settings: read-out: CDK12/CyclinK, 2 mM ATP (high ATP), IC50-[mol/l] (median)
# T1 construct: His-CDK12 (aa Q696-S1082); made in house; host or cells: Hi-5 insect cells (baculovirus co-infection with CAK1)
# Excerpt: In the context of the present invention, the term “IC50 CDK12 hATP” refers to the IC50 values obtained according to the assay described in this section (2.2) herein below, i.e. the IC50 values for the inhibition of CDK12 at high ATP.
# CDK12/CycK-inhibitory activity of compounds of the present invention at 2 millimol/L adenosine-tri-phosphate (ATP) was quantified employing the TR-FRET (TR-FRET=Time Resolved Fluorescence Energy Transfer) based CDK12/CycK activity inhibition assay as described in the following paragraphs.
# A complex of human recombinant CDK12 and human recombinant CycK (both N-terminally His-tagged, expression and purification as described above) was used as enzyme. As substrate for the kinase reaction biotinylated peptide biotin-Ahx-KFELLPTPPLSPSRRSGL (C-terminus in amid form) was used which can be purchased e.g. form the company Biosyntan (Berlin-Buch, Germany).
# For the assay 50 nanoL of a 100 fold concentrated solution of the test compound in DMSO was pipetted into either a black low volume 384 well microtiter plate or a black 1536 well microtiter plate (both Greiner Bio-One, Frickenhausen, Germany), 2 microL of a solution of CDK12/CycK in aqueous assay buffer [25 millimol/L HEPES pH 7.5, 20 millimol/L MgCl2, 5 millimol/L ß-glycerophosphate, 2 millimol/L EGTA, 1.0 millimol/L dithiothreitol, 0.01% (v/v) Nonidet-P40 (Sigma), 0.01% (w/v) bovine serum albumin] were added and the mixture was incubated for 15 min at 22° C. to allow pre-binding of the test compounds to the enzyme before the start of the kinase reaction. Then the kinase reaction was started by the addition of 3 microL of a solution ATP (3.33 millimol/L=> final conc. in the 5 microL assay volume is 2 millimol/L) and substrate (1.67 micromol/L=> final conc. in the 5 microL assay volume is 1 micromol/L) in assay buffer and the resulting mixture was incubated for a reaction time of 60 min at 22° C. The concentration of CDK12/CycK was adjusted depending of the activity of the enzyme lot and was chosen appropriate to have the assay in the linear range, typical concentrations were about 0.75 nanomol/L. The reaction was stopped by the addition of 3 microL of a solution of TR-FRET detection reagents (125 nanomol/L streptavidine-XL665 [Cisbio Bioassays, Codolet, France] and 0.67 nanomol/L anti-Phospho-c-Myc (Ser 62) (E1J4K)-antibody from Cell Signalling [#13748] and 2 nanomol/L LANCE EU-W1024 labeled anti-rabbit IgG antibody [Perkin-Elmer, product no. 0083]) in an aqueous EDTA-solution (133 millimol/L EDTA, 0.27% (w/v) bovine serum albumin in 66.7 millimol/L HEPES pH 7.5).
# The resulting mixture was incubated 1 h at 22° C. to allow the formation of complex between the phosphorylated biotinylated peptide and the detection reagents. Subsequently the amount of phosphorylated substrate was evaluated by measurement of the resonance energy transfer from the Eu-chelate to the streptavidine-XL. Therefore, the fluorescence emissions at 620 nm and 665 nm after excitation at 350 nm was measured in a TR-FRET reader, e.g. a Pherastar FS (BMG Labtechnologies, Offenburg, Germany) or a Viewlux (Perkin-Elmer). The ratio of the emissions at 665 nm and at […] was taken as the measure for the amount of phosphorylated substrate. The data were normalised (enzyme reaction without inhibitor=0% inhibition, all other assay components but no enzyme=100% inhibition).
# [1] = test system: CAL-120 human breast adenocarcinoma cells; assay: Proliferation assay CAL-120 (crystal violet); assay type: cell-based; settings: 96 h, CAL-120 cells, 4 days, read-out: Prolif-CAL-120_ IC50-[mol/l] (median)
# Experimental: Human tumour cells were originally obtained from the American Type Culture Collection (ATCC), or from the Deutsche Sammlung von Mikroorganismen und Zellkulturen (DSMZ, German Collection of Microorganisms and Cell Cultures). Cultivated tumour cells (CAL-120, human breast adenocarcinoma cells, DSMZ ACC-459; MDA-MB-231, human breast cancer cells, ATCC HTB-26) were plated at a density of 4,000 cells/well in a 96-well multititer plate in 200 microL of their respective growth medium supplemented 10% fetal calf serum. After 24 hours, the cells of one plate (zero-point plate) were stained with crystal violet (see below), while the medium of the other plates was supplemented with the test substances in various concentrations (0 micromol/L, as well as in the range of 0.01-10 micromol/L; the final concentration of the solvent dimethyl sulfoxide was adjusted to 0.1%) using a Tecan HP D300 Digital Dispenser. The cells were incubated for 4 days in the presence of test substances. Cell proliferation was determined by staining the cells with crystal violet: the cells were fixed by adding 20 microL/measuring point of an 11% glutaric aldehyde solution for 15 minutes at room temperature. After three washing cycles of the fixed cells with water, the plates were dried at room temperature. The cells were stained by adding 100 microL/measuring point of a 0.1% crystal violet solution (pH 3.0). After three washing cycles of the stained cells with water, the plates were dried at room temperature. The dye was dissolved by adding 100 microL/measuring point of a 10% acetic acid solution. The extinction was determined by photometry at a wavelength of 595 nm. The change of cell number, in percent, was calculated by normalization of the measured values to the extinction values of the zero-point plate (=0%) and the extinction of the untreated (0 μM) cells (=100%). The IC50 values (inhibitory concentration at 50% of maximal effect) were determined by means of a 4 parameter fit.
# T1 sequence (Q9NYV4 with tags, fused parts or gaps): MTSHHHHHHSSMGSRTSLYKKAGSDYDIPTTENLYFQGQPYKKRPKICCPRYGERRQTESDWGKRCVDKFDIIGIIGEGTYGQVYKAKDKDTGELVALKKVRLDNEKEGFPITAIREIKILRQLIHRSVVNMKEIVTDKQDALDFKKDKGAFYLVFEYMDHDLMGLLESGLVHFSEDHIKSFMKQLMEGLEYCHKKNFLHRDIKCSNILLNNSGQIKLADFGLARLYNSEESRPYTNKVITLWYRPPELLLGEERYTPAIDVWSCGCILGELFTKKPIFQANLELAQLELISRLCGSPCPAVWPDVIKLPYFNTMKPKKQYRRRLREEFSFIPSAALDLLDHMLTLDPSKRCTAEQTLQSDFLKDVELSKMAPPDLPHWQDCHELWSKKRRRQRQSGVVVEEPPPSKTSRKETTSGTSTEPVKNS
# T1 sequence (O75909 with tags, fused parts or gaps partner limits assumed): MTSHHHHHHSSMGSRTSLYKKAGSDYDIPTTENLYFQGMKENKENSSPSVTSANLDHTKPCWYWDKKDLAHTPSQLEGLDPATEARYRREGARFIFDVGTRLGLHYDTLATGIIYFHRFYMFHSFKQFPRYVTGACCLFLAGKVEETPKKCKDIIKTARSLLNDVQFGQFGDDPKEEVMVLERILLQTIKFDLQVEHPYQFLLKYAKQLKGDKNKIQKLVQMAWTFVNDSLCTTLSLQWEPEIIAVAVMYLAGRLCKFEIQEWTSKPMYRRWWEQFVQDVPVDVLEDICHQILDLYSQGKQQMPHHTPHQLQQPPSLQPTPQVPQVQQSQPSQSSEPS
Structure (SMILES),IC50 (CDK12/CycK) [µM],IC50 [1] [µM]
"COc1cccc2[nH]c(CNc3nc(N4CCN(C)CC4)nn4c(Br)cnc34)nc12.O=CO [Example 16, 7-bromo-N-[(4-methoxy-1H-benzimidazol-2-yl)methyl]-2-(4-methylpiperazin-1-yl)imidazo[2,1-f][1,2,4]triazin-4-amine Formate (1/1)]",6.29,0.00589
"Brc1cnc2c(NCc3nc4ccccc4[nH]3)nc(N3CCNCC3)nn12 [Example 8, N-[(1H-benzimidazol-2-yl)methyl]-7-bromo-2-(piperazin-1-yl)imidazo[2,1-f][1,2,4]triazin-4-amine]",5.65,0.00325
"COc1cccc2[nH]c(CNc3nc(N4CCNCC4)nn4c(Br)cnc34)nc12 [Example 15, 7-bromo-N-[(4-methoxy-1H-benzimidazol-2-yl)methyl]-2-(piperazin-1-yl)imidazo[2,1-f][1,2,4]triazin-4-amine]",2.09,0.00305
"OC[C@@H]1CCCCN1c1nc(NCc2nc3ccccc3[nH]2)c2ncc(Br)n2n1 [Example 17, [(2S)-1-(4-{[(1H-benzimidazol-2-yl)methyl]amino}-7-bromoimidazo[2,1-f][1,2,4]triazin-2-yl)piperidin-2-yl]methanol]",0.116,0.0193
"Fc1ccc2[nH]c(CNc3nc(N4CCNCC4)nn4c(Br)cnc34)nc2c1F [Example 10, 7-bromo-N-[(4,5-difluoro-1H-benzimidazol-2-yl)methyl]-2-(piperazin-1-yl)imidazo[2,1-f][1,2,4]triazin-4-amine]",1.37,0.000859
"COc1cccc2[nH]c(CNc3nc(N4CCOCC4)nn4c(Br)cnc34)nc12 [Example 13, 7-bromo-N-[(4-methoxy-1H-benzimidazol-2-yl)methyl]-2-(morpholin-4-yl)imidazo[2,1-f][1,2,4]triazin-4-amine]",1.33,0.0123
"CN1CCN(c2nc(NCc3nc4c(F)c(F)ccc4[nH]3)c3ncc(C(F)(F)F)n3n2)CC1 [Example 28, N-[(4,5-difluoro-1H-benzimidazol-2-yl)methyl]-2-(4-methylpiperazin-1-yl)-7-(trifluoromethyl)imidazo[2,1-f][1,2,4]triazin-4-amine]",1.68,0.00199
"C[C@@H]1CN(c2nc(NCc3nc4c(F)c(F)ccc4[nH]3)c3ncc(C(F)(F)F)n3n2)C[C@H](C)N1 [Example 29, N-[(4,5-difluoro-1H-benzimidazol-2-yl)methyl]-2-[rel-(3R,5S)-3,5-dimethylpiperazin-1-yl]-7-(trifluoromethyl)imidazo[2,1-f][1,2,4]triazin-4-amine]",0.0405,0.000536
"CN1CCN(c2nc(NCc3nc4cc(F)ccc4[nH]3)c3ncc(Br)n3n2)CC1 [Example 21, 7-bromo-N-[(5-fluoro-1H-benzimidazol-2-yl)methyl]-2-(4-methylpiperazin-1-yl)imidazo[2,1-f][1,2,4]triazin-4-amine]",16.5,0.00482
"Fc1ccc2[nH]c(CNc3nc(N4CCOCC4)nn4c(Br)cnc34)nc2c1F [Example 7, 7-bromo-N-[(4,5-difluoro-1H-benzimidazol-2-yl)methyl]-2-(morpholin-4-yl)imidazo[2,1-f][1,2,4]triazin-4-amine]",1.26,0.00844
"COc1cccc2[nH]c(CNc3nc(N4C[C@@H](C)N[C@@H](C)C4)nn4c(Br)cnc34)nc12 [Example 14, 7-bromo-2-[rel-(3R,5S)-3,5-dimethylpiperazin-1-yl]-N-[(4-methoxy-1H-benzimidazol-2-yl)methyl]imidazo[2,1-f][1,2,4]triazin-4-amine]",2.01,0.00233

# Source: patent US20230106032A1, “IMIDAZOTRIAZINES ACTING ON CANCER VIA INHIBITION OF CDK12” (Bayer Aktiengesellschaft, priority 2020, published 2023)
